Laboratory results published in patent publication US12583841B2, “Tetrahydropyrrolocyclic compound and application thereof” (Breakthrough Pharmaceuticals Inc., priority 2021, dated 2026).

Key:
[1] = target: T1, OX2R (Homo sapiens, UniProt O43614); assay: FLIPR intracellular calcium antagonism test, HEK293-OX2R cells; type: cell-based; settings: Orexin A at EC70, read-out: hOX2R IC50
T1 construct: expressed in transfected cells
T1 sequence (O43614 1-444): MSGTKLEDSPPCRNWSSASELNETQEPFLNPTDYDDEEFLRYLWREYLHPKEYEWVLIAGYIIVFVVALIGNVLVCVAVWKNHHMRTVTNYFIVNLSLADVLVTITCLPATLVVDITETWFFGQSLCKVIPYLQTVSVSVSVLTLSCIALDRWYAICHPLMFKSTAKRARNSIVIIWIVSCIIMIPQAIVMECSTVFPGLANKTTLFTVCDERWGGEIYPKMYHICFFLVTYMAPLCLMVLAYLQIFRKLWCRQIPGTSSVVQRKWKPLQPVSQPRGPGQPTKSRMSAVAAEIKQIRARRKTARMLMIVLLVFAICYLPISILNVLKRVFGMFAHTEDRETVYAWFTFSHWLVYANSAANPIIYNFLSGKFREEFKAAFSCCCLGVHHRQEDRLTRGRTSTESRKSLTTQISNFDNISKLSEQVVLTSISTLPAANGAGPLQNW
Experimental: (§1) The change of intracellular calcium signal was detected by FLIPR, and the antagonism of the compounds on OX1R and OX2R receptors was evaluated by using IC50 value of the compounds as an index.
(§2) • Cell lines: Transfected HEK293-OX1R and HEK293-OX2R stable cell lines • HEK293-OX1R cell culture medium (DMEM, Invitrogen #11960-044, 10% serum Gibco #10099141, L-Glutamine 1×, Gibco #25030, sodium pyruvate 1×, Gibco #11360, Geneticin 300 μg/mL, Gibco #10131) • HEK293-OX2R cell culture medium (DMEM, Invitrogen #11960-044, 10% serum Gibco #10099141, L-Glutamine 1×, Gibco #25030, sodium pyruvate 1×, Gibco #11360, Geneticin 300 μg/mL, Gibco #10131, Blasticin 2 μg/mL, Invitrogen #R21001)
(§3) Experimental Steps and Methods: • a) Cell seeding (HEK293-OX1R and HEK293-OX2R cells) • 1) preheating the culture medium, trypsin and DPBS under water bath at 37° C.; pipetting and removing the medium of cell culture and washing same with 10 mL of DPBS; • 2) adding the preheated trypsin to a culture flask, rotating the culture flask so that the trypsin evenly covered the culture flask, and putting the culture flask in a 37° C., 5% CO2 incubator for digestion for 1-2 min; • 3) suspending the cells with 10-15 mL of medium for each T150 and centrifuging at 800 rpm for 5 min; resuspending the cells with 10 mL of medium, pipetting 1 mL of the cell suspension and counting with Vi-cell; • 4) diluting OX1R cells with medium to 5×10^5 cells/mL, and diluting OX2R cells with medium to 4×10^5 cells/mL, and adding the diluted cells to 384 plate (Greiner.781946) with a multi-channel pipette (50 μL/well, 25000 cells/well for OX1R cells, 20000 cells/well for OX2R cells); placing the cell plate in a 37° C., 5% CO2 incubator overnight. • b) Compound loading: • 1) diluting the compound to 20 mM with DMSO, 3-fold dilution, 8 gradients, duplicate wells, and adding same to a compound plate with an Echo liquid handler; then adding 20 μL of buffer to maintain the final concentration of DMSO of 0.1%. • c) FLIPR experiment: • 1) washing off the cell culture medium in the 384 plate with a vacuum pump, adding […] Direct fluorescent dye, incubating in 37° C., 5% CO2 incubator for 1 h, and balancing at room temperature for another 10 min. • 2) EC50 test: manually diluting Orexin A on ice, 3-fold dilution, 8 gradients, duplicate wells; preparing a DMSO plate and keep the DMSO concentration to be 0.5%; putting the cell plate, OrexinA plate, and DMSO plate in FLIPR respectively, and reading the fluorescence value. • 3) calculating the EC70 value based on the EC50 value of Orexin A; preparing a 5×EC70 solution, adding same to 384 compound plate with a multi-channel pipette, and storing on ice; • 4) putting the compound plate, 5×EC70 plate, cell plate, and FLIPR tip in sequence in FLIPR, running the program, and reading the fluorescence value. • d) Data analyzing: using Prism5.0 to analyze the data, and calculating the IC50 value of the compound.

[2] = target: T2, OX1R (Homo sapiens, UniProt O43613); assay: FLIPR intracellular calcium antagonism test, HEK293-OX1R cells; type: cell-based; settings: Orexin A at EC70, read-out: hOXIR IC50
T2 construct: expressed in transfected cells
T2 sequence (O43613 1-425): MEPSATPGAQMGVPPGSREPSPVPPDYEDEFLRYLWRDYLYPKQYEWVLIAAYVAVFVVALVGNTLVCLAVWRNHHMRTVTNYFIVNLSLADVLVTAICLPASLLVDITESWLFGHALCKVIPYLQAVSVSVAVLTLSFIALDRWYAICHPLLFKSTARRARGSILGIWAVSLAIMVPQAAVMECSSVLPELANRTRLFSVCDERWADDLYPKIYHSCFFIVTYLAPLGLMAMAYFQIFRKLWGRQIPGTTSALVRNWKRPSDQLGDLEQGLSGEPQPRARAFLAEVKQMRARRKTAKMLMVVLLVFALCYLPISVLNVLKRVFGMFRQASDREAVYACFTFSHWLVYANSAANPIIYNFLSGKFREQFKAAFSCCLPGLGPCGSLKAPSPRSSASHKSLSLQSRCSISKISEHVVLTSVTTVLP
Experimental: as §1, §2, §3

Structure (SMILES)	IC50 [1] [nM]	IC50 [2] [nM]
COc1ccc2nc([C@@H]3[C@H]4C[C@H]4CN3C(=O)c3ccccc3-n3nccn3)[nH]c2c1 [Compound 1]	25	> 10000
COc1ccc2nc([C@@H]3C[C@H]4C[C@H]4N3C(=O)c3ccccc3-n3nccn3)[nH]c2c1 [Compound 2]	72	> 10000
COc1ccc(-n2nccn2)c(C(=O)N2C[C@@H]3C[C@@H]3[C@H]2c2nc3ccc(OC)cc3[nH]2)c1 [Compound 4]	64	462
COc1ccc2nc([C@@H]3[C@H]4C[C@H]4CN3C(=O)c3cc(C)ccc3-n3nccn3)[nH]c2c1 [Compound 5]	96	337
COc1ccc2nc([C@@H]3[C@H]4C[C@H]4CN3C(=O)c3c(F)cccc3-n3nccn3)[nH]c2c1 [Compound 6]	299	1420
COc1ccc2nc([C@@H]3C[C@H]4C[C@H]4N3C(=O)c3ccc(F)cc3-n3nccn3)[nH]c2c1 [Compound 9]	42	3170
COc1ccc2[nH]c([C@@H]3C[C@H]4C[C@H]4N3C(=O)c3c(F)cccc3-n3nccn3)nc2c1 [Compound 12]	81	1280

Continued, values first:

IC50 [1] [nM]	IC50 [2] [nM]	Structure (SMILES)
24	877	COc1ccc2nc([C@@H]3C[C@H]4C[C@H]4N3C(=O)c3cc(C)ccc3-n3nccn3)[nH]c2c1 [Compound 7]
17	710	COc1ccc2[nH]c([C@@H]3C[C@H]4C[C@H]4N3C(=O)c3ccc(C)cc3-n3nccn3)nc2c1 [Compound 10]
33	3600	COc1ccc2[nH]c([C@@H]3C[C@H]4C[C@H]4N3C(=O)c3cc(F)ccc3-n3nccn3)nc2c1 [Compound 11]
60	2440	COc1ccc2[nH]c([C@@H]3C[C@H]4C[C@H]4N3C(=O)c3cc(C)ccc3-c3ncccn3)nc2c1 [Compound 13]
30	1040	COc1ccc2[nH]c([C@@H]3C[C@H]4C[C@H]4N3C(=O)c3cc(Cl)ccc3-n3nccn3)nc2c1 [Compound 14]
